The subject of data set [1] is Salmonella typhimurium G46 missense histidine-auxotroph. Nature of the data set: Host mediated assay (in vivo mutagenicity), G46 indicator (Table 22). More on the design: species or system Salmonella typhimurium in Cox white Swiss male mice. Conditions: s.c. On the procedure:
Cox white Swiss male mice 25-30 grams were used in all in vivo tests.
A. Drug Administration: Appropriate solvents were used where applicable with a solvent control run within each test. […] The organisms were grown to stationary phase, then diluted with normal saline to give an inoculum near 1×10^8 organisms per milliliter. The abdominal area of the drug-treated mouse was swabbed with alcohol and two milliliters of bacterial culture were injected into the abdominal cavity of the mouse. The mice were returned to their cages for 3-4 hours.
C. Autopsy and Recovery: The mice were sacrificed individually by cervical dislocation prior to each autopsy. The abdominal areas were soaked with ethanol. The peritoneum was bared and 2.5 ml. of sterile normal saline was injected into the peritoneal cavity using a sterile (3-ml. plastic syringe with a 20-gauge needle. After insertion, the needle is turned bevel up and the saline was expelled into the cavity; while the needle remains through the peritoneum, keeping the point of the needle in sight pressed against the peritoneal wall, the abdomen of the mouse was massaged to mix contents. The saline wash was removed from the abdominal cavity back into the syringe. The needle was removed and the contents expelled into an appropriately marked tube and iced 4° C.
D. Dilution and Plating: One-ml. samples were plated at 10° dilution on all mice to determine revertants (histidine+).
A one-milliliter sample from the untreated dilutions from control animals is plated 10^-6, 10^-7, and 10^-8 dilutions with excess histidine to determine mutable population (histidine-).

Data set [2] deals with antibody response to sheep blood cells (hemaglutination titer). Nature of the data set: Immune regulating test: suppression of hemaglutination titer by 4-fold factor in mice (i.p. drug, i.p. sheep blood cells), Tables 1-15. It is filed as in vivo, Swiss mice. Conditions: Mus musculus, ip, 192 h, × 3, intraperitoneal, minimum dose to suppress the hemaglutination titer by a 4-fold factor, 8 days after antigen, read-out: Immuno-Suppressant ED4-Fold. Put shortly:
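Groups of five 20-gram Swiss mice received compound i.p. and sheep blood cell antigen i.p.; sera pooled per group eight days after antigen. Hemagglutination titers of pooled sera compared with controls; value is the minimum dose suppressing titer 4-fold versus control.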

In data set [3] the test system is mouse skin graft rejection (AKR skin on C3H mice). Nature of the data set: Suppression of rejection of mouse-tail skin grafts (Table 19). The class given is in vivo, mice (C3H recipients, AKR donors). Conditions: 50 mg/kg/2 days, POT vehicle, control 19.6 ± 1.3. From the text: Compounds disclosed herein have shown activity in suppressing the rejection of mouse skin grafts. […] Albino tail skin segments (AKR strain) were grafted onto the tails of groups of ten agouti recipient mice (C3H strain). Results achieved with two therapy regimens employing 1-(6-methoxy-2-benzothiazolyl)-3-phenyl urea were as follows:
*Treatment was commenced 3 days prior to grafting and continued every 2nd
**50% polyethylene glycol, 40% corn oil, 10% Tween 80

For data set [4], the system named is graft versus host reaction. Kind of data set: Graft versus host (GVH) reaction, spleen weight (Tables 20, 21). It is filed as in vivo, mice (C57BL donors, F1 hybrid C57BL×C3H recipients). On the procedure: In this determination, […] (C57BL) mouse spleen cells are injected into mice of an F1 hybrid strain (C57BL×C3H). […] The injected cells, however, mount a reaction to the recipient's tissues due to the foreign C3H-derived antigens. As a consequence, the recipient's spleen becomes enlarged. Immunosuppressive therapy prevents or reduces this enlargement. Thus, spleen weights provide a measure of the GVH reaction and its reduction under immunosuppression.
Treated and GVH control animals receive an intraperitoneal injection of 1.2×10^9 splenic lymphocytes from the C57 donors. Spleens are weighed ten days later. Spleen weights derived from groups of recipient mice receiving genetically homologous, i.e., syngeneic cells (C57BL×C3H) provide normal control values for calculating percent inhibition in drug-treated groups. For example, mice given 13 daily topical doses of 1-(4,5,6,7-tetra-hydro-2-benzothiazolyl)-3-phenyl urea show a 62% reduction in GVH reaction relative to controls, as set forth in Table 20.
Using this procedure, three compounds from the above useful in the processes of this invention have been compared with several reference immunosuppressive drugs. Treatment levels defining the 50 percent inhibitory dose have been determined.

The test system of data set [5] is twelve histidine-auxotrophs of Salmonella typhimurium. The class given is in vivo, Salmonella typhimurium in Cox white Swiss male mice. Conditions: 300 mg/kg. Here is the method: The in vivo and in vitro mutagenic potential of 1-(6-methoxy-2-benzothiazolyl)-3-phenyl-urea was negative when tested versus the twelve histidine-auxotrophs of Salmonella typhimurium at a level of 300 mg/kg in vivo and 750 mcg/ml in vitro. Imuran and Cytoxan, compounds with immunosuppressive activity; Streptozotacin, N-nitrosodimethylamine (DMNA) and trimethylenemelamine (TEM) known mutagens and/or carcinogens; and Acetylsalicylic Acid (ASA) were used as control compounds.
A. Drug Administration: Appropriate solvents were used where applicable with a solvent control run within each test. The compounds to be tested were given either subcutaneously along the backbone of the mouse (0.1 ml.) or by oral gavage (0.5 ml.) B. Inoculation Technique: The histidine- cultures G46, C209, C3076, and D3056 used as the TA15 series have lost pathogenicity to mice because of absence or decrease in the lipopolysaccharide coat. The organisms were grown to stationary phase, then diluted with normal saline to give an inoculum near 1×10^8 organisms per milliliter. The abdominal area of the drug-treated mouse was swabbed with alcohol and two milliliters of bacterial culture were injected into the abdominal cavity of the mouse. The mice were returned to their cages for 3-4 hours.
C. Autopsy and Recovery: The mice were sacrificed individually by cervical dislocation prior to each autopsy. […]

Structures are written as SMILES.

Take `COc1ccc2nc(NC(=O)Nc3ccccc3)sc2c1` [Table 11: phenyl, 6-CH3 O, S, 1-(6-methoxy-2-benzothiazolyl)-3-phenyl urea]: the “IN VIVO mutants test/mutants control” value is “.95” in data set [1] (3 mg/kg); “.95” in data set [1] (30 mg/kg); 1.2 in data set [1] (300 mg/kg, MT/MC of 3 would indicate mutagenic potential); 1.25 in data set [1] (.3 mg/kg). The minimal effective dose in data set [2] was below 25 mg/kg. For the same compound, the “Allograft Survival (Days ± S.E.)” value in data set [3] (oral) is reported as 25.2 ± 2.0 Days; in data set [3] (subcutaneous) it was 27.7 ± 1.0 Days. The “Percent GVH Inhibition” value in data set [4] (1 mg/kg × 13, s.c.) worked out at 22%; in data set [4] (2 mg/kg × 13, s.c.), 58%. Also, the “in vivo mutagenic potential” value in data set [5] is reported as “negative”.

These data come from patent US4153709A, “N-Heterocyclic ureas as immune regulants” (Eli Lilly and Company, priority 1977, dated 1979).
